Measured values: patent US20240109893A1, “PREPARATION AND APPLICATION METHOD OF HETEROCYCLIC COMPOUNDS AS KRAS INHIBITOR” (SHANGHAI KECHOW PHARMA, INC., priority 2020, published 2024)

Tested on: H358 cells
Assay: Cell activity experiment: activity test of H358 cells (MTT, 5 days)
Type: cell-based
Conditions: 5 days incubation, absorbance 492 nm
Experimental: Example: Cell Activity Experiment
1. Cells: H358 purchased from Shanghai EK-Bioscience Biotechnology Co., Ltd.
2. Reagents: RPMI 1640 medium, Tryple, MTT (5 mg/mL), DMSO, and DPBS.
3. Instruments: an incubator at 37° C. and 5% CO2, a UTRAO microplate reader, a biosafety cabinet, a cell counting plate, and an Optec optical microscope.
4. Experimental consumables: 96-well plate Item No.: 3599, and 96-well round-bottomed dispensing plate.
Experimental Steps of Activity Test of H358 Cells:
1. Plating: Cells in the logarithmic growth phase were digested with Tryple and terminated with a fresh medium, and the cells were counted; and the cell concentration was adjusted to 55555 cells/mL with a fresh medium, wherein 90 μL was added to each well, and those on edges were filled with sterile DPBS.
2. The plate was incubated in the incubator at 37° C. and 5% CO2 for 24 h, so that the cells cover the bottom of the well by about 50%.
3. Drug preparation for experimental group: The drug was dissolved in DMSO to prepare a 20 mmol/L stock solution; the stock solution was further diluted with DMSO to 2 mmol/L, which was serially 3-fold diluted to form an […]-concentration gradient, resulting in a 200× serial compound solution; 10 μL of the serial compound solution was taken and added to 190 μLμL of RPMI1640 medium to obtain a 10× serial compound solution; and 10 μL of the 10× compound solution was taken and added to 90 μL 96-well cell culture plate, with three replicates per grade. The concentration gradient of the compound in the 96-well cell culture plate was […], 1.524158 nM, 4.572474 nM, 13.717420 nM, 41.152260 nM, 123.456800 nM, 370.370400 nM, 1111.111000 nM, 3333.333000 nM, and 10000.000000 nM, with 100 μL per well, and the final concentration of DMSO was 0.5%.
The control group contained the same volume of solvent as the experimental group and was diluted with a complete medium, with 100 μL per well.
4. Incubation was carried out for 5 days in an incubator with 5% CO2 at 37° C.
5. After 5 days, 10 μL of an MTT solution (5 mg/mL) was added to each well, and the culture was continued for 4 h.
6. The culture was terminated, and the culture solution was carefully sucked out of the well.
7. 150 μL of dimethyl sulfoxide (DMSO) was added to each of the null wells in the experimental group and the control group; and after shaking at a medium speed for 10 s, the crystal was fully dissolved, and the optical absorbance value thereof was measured at a wavelength of 492 nm.

| Structure (SMILES) | IC50 (Homo sapiens, NCI-H358, 120 h) | IC50 |
| --- | --- | --- |
| C=C(F)C(=O)N1CCN(c2nc(OC[C@@]34CCCN3C[C@H](F)C4)nc3c(OC4CC4)c(-c4cccc5cccc(Cl)c45)c(Cl)cc23)C[C@@H]1CC#N [Example 916] | 37 nM | – |
| C=CC(=O)N1CCN(c2nc(OC[C@@H]3C[C@@H](F)CN3C)nc3cc(-c4cccc5cccc(Cl)c45)ccc23)C[C@@H]1CC#N [Example 79, 2-((S)-1-acryloyl-4-(7-(8-chloronaphthalen-1-yl)-2-((((2S,4R)-4-fluoro-1-methylpyrrolidin-2-yl]methoxy))quinazolin-4-yl)piperazin-2-yl)acetonitrile] | 20 nM | – |
| C=C(F)C(=O)N1CCN(c2nc(OC[C@@]34CCCN3C[C@H](F)C4)nc3c(F)c(-c4cccc5c4CC4CC54)ccc23)C[C@@H]1CC#N (single isomer, unassigned) [Example 888] | – | 292 nM |
| C=C(F)C(=O)N1CC[C@@H]2[C@H]1CN2c1nc(OC[C@@]23CCCN2C[C@H](F)C3)nc2c(F)c(-c3ccc(F)c4c3CCCC4)ncc12 [Example 32] | 35 nM | – |
| C=CC(=O)N1CC[C@@H]2[C@H]1CN2c1nc(OC[C@@H]2CCCN2C)nc2cc(-c3cccc4ccc(F)c(Cl)c34)ccc12 [Example 101, 1-((1R,5R)-6-(7-(8-chloro-7-fluoronaphthalen-1-yl)-2-(((S)-1-methylpyrrolidin-2-yl)methoxy)quinazolin-4-yl)-2,6-diazabicyclo[3.2.0]hept-2-yl)prop-2-en-1-one] | 5 nM | – |
| C=CC(=O)N1CCN(c2nc(OCC34CCCN3CCC4)nc3c(F)c(-c4cccc5c4[C@H]4C[C@H]4C5)ncc23)C[C@@H]1CC#N [Example 63, 2-((S)-1-acryloyl-4-(8-fluoro-2-((tetrahydro-1H-pyrrolizin-7a(5H)-yl)methoxy)-7-((1aS,6aS)-1,1a,6,6a-tetrahydrocyclopropa[a]inden-2-yl)pyridino[4,3-d]pyrimidin-4-yl)piperazin-2-yl)acetonitrile] | 2.2 nM | – |
| C=C(F)C(=O)N1CCN(c2nc(OC[C@@H]3C[C@@H](F)CN3C)nc3c(F)c(-c4cncc5c4CCCC5)ncc23)C[C@@H]1CC#N [Example 36] | 120 nM | – |
| C=C(F)C(=O)N1CCN(c2nc(OC[C@@H]3CCCN3C)nc3c(F)c(-c4ccc(F)c5c4CCCC5)ncc23)C[C@@H]1CC#N [Example 18] | 100 nM | – |
| C=C(F)C(=O)N1CCN(c2nc(OC[C@@H]3C[C@@H](F)CN3C)nc3cc(-c4cncc5cccc(Cl)c45)ccc23)C[C@@H]1CC#N [Example 129] | 50 nM | – |
| C=CC(=O)N1CCN(c2nc(OC[C@@H]3C[C@@H](F)CN3C)nc3c(F)c(-c4cncc5cccc(Cl)c45)ccc23)C[C@@H]1CC#N [Example 160] | 5 nM | – |
| C=C(F)C(=O)N1CC[C@@H]2[C@H]1CN2c1nc(OC[C@@H]2C[C@@H](F)CN2C)nc2c(F)c(-c3ccc(F)c4c3CCCC4)ncc12 [Example 28] | 80 nM | – |
| C=CC(=O)N1CCN(c2c(CC#N)c(OCC34CCCN3CCC4)nc3cc(-c4cccc5ccc(F)c(Cl)c45)c(F)cc23)C[C@@H]1CC#N [Example 621, (S)-4-(4-acryloyl-3-(cyanomethyl)piperazin-1-yl)-7-(8-chloro-7-fluoronaphthalen-1-yl)-6-fluoro-2-((tetrahydro-1H-pyrrolizin-7a(5H)-yl)methoxy)quinoline-3-acetonitrile] | 330 nM | – |
| C=CC(=O)N1CC[C@@H]2[C@H]1CN2c1nc(OC[C@@]23CCCN2C[C@H](F)C3)nc2c(F)c(-c3cccc4c3CCCC4)ncc12 [Example 15] | 3 nM | – |
| C=CC(=O)N1CC[C@@H]2[C@H]1CN2c1nc(OCC23CCCN2CCC3)nc2c(F)c(-c3ccc(F)c4c3CCCC4)ncc12 [Example 29] | 10 nM | – |
| C=CC(=O)N1CCN(c2nc(OC[C@@H]3C[C@@H](F)CN3C)nc3c(F)c(-c4cccc5c4CCCC5)ncc23)C[C@@H]1CC#N [Example 5, 2-((S)-1-acryloyl-4-(8-fluoro-2-(((2S,4R)-4-fluoro-1-methylpyrrolidin-2-yl)methoxy)-7-(5,6,7,8-tetrahydronaphthalen-1-yl)pyridino[4,3-d]pyrimidin-4-yl)piperazin-2-yl)acetonitrile] | 20 nM | – |
| C=CC(=O)N1CCN(c2nc(OCC34CCCN3CCC4)nc3c(F)c(-c4cccc5c4CCCC5)ccc23)C[C@@H]1CC#N [Example 363, (S)-2-(1-acryloyl-4-(8-fluoro-2-((tetrahydro-1H-pyrrolizin-7a(5H)-yl)methoxy)-7-(5,6,7,8-tetrahydronaphthalene)-1-yl)quinazolin-4-ylpiperazin-2-yl)acetonitrile] | 5 nM | – |
| C=C(F)C(=O)N1CCN(c2nc(OC[C@@H]3C[C@@H](F)CN3C)nc3c(F)c(-c4ccc(F)c5c4CCCC5)ncc23)C[C@@H]1CC#N [Example 20] | 120 nM | – |
| C=CC(=O)N1CCN(c2nc(OC[C@@H]3CCCN3C)nc3c(F)c(N4CCCc5cc(F)ccc54)c(Cl)cc23)CC1 [Example 615, (S)-1-(4-(6-chloro-8-fluoro-7-(6 fluoro-3,4-dihydroquinoline-1(2H)-yl)-2-((1-methylpyrrolidin-2-yl)methoxy)quinazolin-4-yl)piperazin-1-yl)prop-2-en-1-one] | 1010 nM | – |
| C=C(F)C(=O)N1CC[C@@H]2[C@H]1CN2c1nc(OC[C@@H]2CCCN2C)nc2c(F)c(-c3cncc4c3CCCC4)ncc12 [Example 42, 2-fluoro-1-(((1R,5R)-6-(8-fluoro-2-(((S)-1-methylpyrrolidin-2-yl)methoxy)-7]-(5,6,7,8-tetrahydroisoquinolin-4-yl)pyridino[4,3-d]pyrimidin-4-yl)-2,6-diazabicyclo[3.2.0]hept-2-yl)prop-2-en-1-one] | 35 nM | – |
| C=CC(=O)N1CCN(c2nc(OC[C@@]34CCCN3C[C@H](F)C4)nc3nc(-c4cccc5cccc(Cl)c45)ccc23)C[C@@H]1CC#N [Example 260] | 10 nM | – |
| C=CC(=O)N1CC[C@@H]2[C@H]1CN2c1nc(OC[C@@H]2CCCN2C)nc2c(F)c(-c3cncc4c3CCCC4)ncc12 [Example 41] | 15 nM | – |
| C=CC(=O)N1CCN(c2nc(OCC34CCCN3CCC4)nc3c(F)c(-c4ccc(F)c5c4CCCC5)ncc23)C[C@@H]1CC#N [Example 21] | 7 nM | – |
| C=C(F)C(=O)N1CCN(C2=C(C#N)C(OCC34CCCN3CCC4)=NC3C=C(c4cccc5ccc(F)c(Cl)c45)C=CC23)C[C@@H]1CC#N (stereo partly shown) [Example 627] | 120 nM | – |
| C=CC(=O)N1CC[C@@H]2[C@H]1CN2c1nc(OC[C@@H]2C[C@@H](F)CN2C)nc2c(F)c(-c3cccc4c3CCCC4)ncc12 [Example 11] | 26 nM | – |
| C=CC(=O)N1CCN(c2nc(OCC34CCCN3CCC4)nc3c(F)c(-c4cccc5c4C4CC4C5)ncc23)C[C@@H]1CC#N (stereo partly shown) [Example 61] | 0.71 nM | – |
| C=C(F)C(=O)N1CCN(c2nc(OC[C@@H]3C[C@@H](F)CN3C)nc3cc(-c4cccc5ccc(F)c(Cl)c45)ccc23)C[C@@H]1CC#N [Example 96] | 25 nM | – |
| C=C(F)C(=O)N1CCN(c2nc(OC[C@@]34CCCN3C[C@H](F)C4)nc3c(F)c(-c4cncc5c4CCCC5)ncc23)C[C@@H]1CC#N [Example 40] | 30 nM | – |
| C=CC(=O)N1CCN(c2nc(OCC34CCCN3CCC4)nc3c(F)c(-c4cccc5cccc(Cl)c45)ccc23)C[C@@H]1CC#N [Example 364, (S)-2-(1-acryloyl-4-(7-(8-chloronaphthalen-1-yl)-8-fluoro-2-((tetrahydro-1H-pyrrolizin-7a(5H)-yl)methoxy)quinazolin-4-yl)piperazin-2-yl)acetonitrile] | 2 nM | – |
